For experiment [1], the target named is T1, CCR9 (Homo sapiens, UniProt P51686).
T1 sequence (P51686 1-369): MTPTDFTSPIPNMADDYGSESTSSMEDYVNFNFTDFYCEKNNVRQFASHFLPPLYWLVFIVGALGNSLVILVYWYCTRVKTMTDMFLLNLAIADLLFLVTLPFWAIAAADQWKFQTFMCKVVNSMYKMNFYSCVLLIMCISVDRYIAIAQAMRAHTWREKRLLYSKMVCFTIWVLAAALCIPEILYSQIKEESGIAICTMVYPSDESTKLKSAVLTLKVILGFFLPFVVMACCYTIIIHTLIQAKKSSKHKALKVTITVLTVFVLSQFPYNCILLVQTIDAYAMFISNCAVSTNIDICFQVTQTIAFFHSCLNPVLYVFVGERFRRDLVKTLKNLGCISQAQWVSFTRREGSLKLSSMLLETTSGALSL
As to the kind of experiment: FLIPR calcium flux assay using hCCR9 over expressed cells (TECK stimulation). The experiment is classed as cell-based. Also on record: expressed in transfected cells; host or cells: Chem-1 cells overexpressing hCCR9. As to conditions: Chem1-hCCR9 overexpressing cells; Ki determined from IC50 of TECK-induced intracellular calcium increase. The protocol:
Biological Activity: FLIPR Assay Using hCCR9 Over Expressed Cells
A calcium flux assay was used to determine the ability of the compounds to interfere with the binding between CCR9 and its chemokine ligand (TECK) in Cheml-hCCR9 overexpressing cells. hCCR9 overexpressing cells were seeded (25,000 cells/well) into black Poly-D-Lysine coated clear bottom 96-well plates (BD Biosciences, Cat #356640) and incubated overnight at 37° C./5% CO2 in a humidified incubator. Media was aspirated and cells washed twice with 100 μL assay buffer (1×HBSS, 20 mM HEPES) containing 2.5 mM Probenecid. A 0.3× Fluo-4 NW calcium dye was prepared in assay buffer containing 5 mM Probenecid and stored in the dark. Each well was loaded with 100 μL of 0.3× Fluo-4 NW calcium dye and incubated at 37° C./5% CO2 for 60 minutes and then at room temperature for 30 minutes. A half-log serially diluted concentration response curve was prepared at a 3× final assay concentration for each compound (10 μM−0.1 nM final assay concentration) and 50 μL of the compound then transferred to the cells (150 μL final volume) for 60 minutes prior to stimulation (30 minutes at 37° C./5% CO2 and 30 minutes at room temperature). TECK was diluted to 4× its ECso in assay buffer (containing 0.1% [w/v] bovine serum albumin[BSA]) and 50 μL dispensed through the fluorometric imaging plate reader (FLIPR) instrument to stimulate the cells (200 μL final volume). The increase in intracellular calcium levels was measured with the FLIPR instrument. The potency of the compound as a CCR9 antagonist was calculated as an IC50 using GraphPad Prism software (variable slope four parameter). The Ki of the compound was determined from the IC50 values using the following equation.
(§1) Ki calculation: IC50/1+(Agonist (TECK) conc. used in assay/EC50 of agonist (TECK) generated on day of experiment)
For orientation: Calcium assays in cells follow changes in intracellular calcium, usually with a dye or a luminescent sensor.

The target of experiment [2] is T1, CCR9. Description: FLIPR calcium flux assay using MOLT4 cells (TECK stimulation). Type of experiment: cell-based. Also on record: endogenous in cells; host or cells: MOLT4 (human T-cell line). As to conditions: MOLT4 cells (a human T-cell line); Ki determined from IC50 of TECK-induced intracellular calcium increase. The protocol: Biological Activity: FLIPR Assay Using MOLT4 Cells
A calcium flux assay was used to determine the ability of the compounds to interfere with the binding between CCR9 and its chemokine ligand (TECK) in MOLT4 cells (a human T-cell line). MOLT4 cells were seeded (100,000 cells/well) in coming cell culture plates (Cat #3603) in assay buffer (lx HBSS, 20 mM HEPES) containing 2.5 mM Probenecid. The plate was centrifuged at 1200 rpm for 3 minutes and incubated at 37° C./5% CO2 for 2 hours. A 0.3× Fluo-4 NW calcium dye was prepared in assay buffer containing 5 mM Probenecid and stored in the dark. Each well was loaded with 25 μL of 0.3× Fluo-4 NW calcium dye and incubated at 37 C/5% CO2 for 60 minutes and then at room temperature for 30 minutes. A half-log serially diluted concentration response curve was prepared at a 4× concentration for each (10 μM-0.1 nM final assay concentration) and 25 μL of the compound then transferred to the cells (100 μL final volume) for 60 minutes prior to stimulation (30 minutes at 37° C./5% CO2 and 30 minutes at room temperature). TECK was diluted to 5× its EC50 in assay buffer (containing 0.1% [w/v] bovine serum albumin [BSA]) and 25 μL dispensed through the FLIPR instrument to stimulate the cells (125 μL final volume). The increased in intracellular calcium levels was measured with the FLIPR instrument. The potency of the compound as CCR9 antagonist was calculated as an IC50 using GraphPad Prism software (variable slope four parameter). The Ki of the compound was determined from the IC50 values using the following equation.
as §1

For `Cc1cc2c(Cl)ccc(NS(=O)(=O)c3ccc(C(C)(C)C)cc3)n2n1` [Compound 94, 4-(tert-butyl)-N-(4-chloro-2-methylpyrazolo[1,5-a]pyridin-7-yl)benzenesulfonamide], the results for the Ki on CCR9 [1] and on CCR9 [2] were 0.181 µM and 0.162 µM, respectively.

With `Cc1cc(-c2cc3c(C#N)ccc(NS(=O)(=O)c4ccc(C(C)(C)C)cc4)n3n2)n(C)n1` [Compound 158], the Ki on CCR9 [1] was determined as 0.186 µM; at CCR9 [2], 0.048 µM.

Take `COc1ncccc1-c1cc2c(C#N)ccc(NS(=O)(=O)c3ccc(C(C)(C)C)cc3)n2n1` [Compound 202]: the Ki at CCR9 [1] came to 0.127 µM; on CCR9 [2] it was 0.107 µM.

With `Cc1cc2nccc(NS(=O)(=O)c3ccc(C(C)(C)C)cc3)n2n1` [Compound 3], the Ki stood at 1.44 µM at CCR9 [1] and 0.315 µM at CCR9 [2].

Take `CCn1cc(-c2cc3c(C#N)ccc(NS(=O)(=O)c4ccc(C(C)(C)C)cc4)n3n2)cn1` [Compound 189]: the Ki on CCR9 [1] worked out at 0.022 µM; at CCR9 [2], 0.01 µM.

On to `Cn1nccc1-c1cc2c(C#N)ccc(NS(=O)(=O)c3ccc(C(C)(C)C)cc3)n2n1` [Compound 152], for which the Ki was 0.125 µM on CCR9 [1] and 0.041 µM on CCR9 [2].

As for `Cc1c(-c2cc3c(C#N)ccc(NS(=O)(=O)c4ccc(C(C)(C)C)cc4)n3n2)cnn1C` [Compound 190], the Ki at CCR9 [1] worked out at 0.114 µM; on CCR9 [2], 0.054 µM.

`CC(C)(C)c1ccc(S(=O)(=O)Nc2ccc(Cl)c3cc(-c4cccnc4)nn23)cc1` [Compound 110, 4-(tert-butyl)-N-(4-chloro-2-(pyridin-3-yl)pyrazolo[1,5-a]pyridin-7-yl)benzenesulfonamide]: the Ki is 0.394 µM at CCR9 [1] and 0.115 µM on CCR9 [2].

As for `CC(C)(C)c1ccc(S(=O)(=O)Nc2ccnc3cc(C4CC4)nn23)cc1` [Compound 37, 4-(tert-butyl)-N-(2-cyclopropylpyrazolo[1,5-a]pyrimidin-7-yl)benzenesulfonamide], the Ki on CCR9 [1] stood at 1.95 µM; at CCR9 [2], 0.703 µM.

For `Cc1cncc(-c2cc3c(C#N)ccc(NS(=O)(=O)c4ccc(C(C)(C)C)cc4)n3n2)c1` [Compound 200], the values for the Ki at CCR9 [1] and on CCR9 [2] were 0.012 µM and 0.02 µM, respectively.

With `CCc1cc2nccc(NS(=O)(=O)c3ccc(C(C)(C)C)cc3)n2n1` [Compound 85, 4-(tert-butyl)-N-(2-ethylpyrazolo[1,5-a]pyrimidin-7-yl)benzenesulfonamide], the results for the Ki on CCR9 [1] and on CCR9 [2] were 1.8 µM and 0.111 µM, respectively.

`CC(C)(C)c1ccc(S(=O)(=O)Nc2ccc(Cl)c3cc(-c4cnco4)nn23)cc1` [Compound 169, 4-(tert-butyl)-N-(4-chloro-2-(oxazol-5-yl)pyrazolo[1,5-a]pyridin-7-yl)benzenesulfonamide]: the Ki stood at 0.343 µM on CCR9 [1] and 0.164 µM at CCR9 [2].

In the case of `CC(C)(C)c1ccc(S(=O)(=O)Nc2ccc(C#N)c3cc(-c4cccnc4)nn23)cc1` [Compound 149, 4-(tert-butyl)-N-(4-cyano-2-(pyridin-3-yl)pyrazolo[1,5-a]pyridin-7-yl)benzenesulfonamide], the values for the Ki at CCR9 [1] and at CCR9 [2] were 0.159 µM and 0.087 µM, respectively.

As for `CC(C)(C)c1ccc(S(=O)(=O)Nc2ccc(Cl)c3cc(-c4ccsc4C(=O)O)nn23)cc1` [Compound 172, 3-(7-((4-(tert-butyl)phenyl)sulfonamido)-4-chloropyrazolo[1,5-a]pyridin-2-yl)thiophene-2-carboxylic acid], the Ki worked out at 0.129 µM at CCR9 [1] and 0.079 µM at CCR9 [2].

For `Cc1cc2nccc(NS(=O)(=O)c3ccc(-c4cnco4)cc3)n2n1` [Compound 1, N-(2-methylpyrazolo[1,5-a]pyrimidin-7-yl)-4-(oxazol-5-yl)benzenesulfonamide], the Ki was found to be 0.456 µM on CCR9 [1] and 0.019 µM on CCR9 [2].

As for `Cn1cnc(-c2cc3c(Cl)ccc(NS(=O)(=O)c4ccc(C(C)(C)C)cc4)n3n2)c1` [Compound 182], the Ki at CCR9 [1] was found to be 0.168 µM; at CCR9 [2] it was 0.08 µM.

`CCOc1ccc(-c2cc3c(Cl)ccc(NS(=O)(=O)c4ccc(C(C)(C)C)cc4)n3n2)cn1` [Compound 194]: the Ki on CCR9 [2] amounted to 0.11 µM.

`COc1ccc(-c2cc3c(C#N)ccc(NS(=O)(=O)c4ccc(C(C)(C)C)cc4)n3n2)c(OC)n1` [Compound 210]: on CCR9 [2], the Ki stood at 0.149 µM.

With `CCc1cc2nccc(NS(=O)(=O)c3ccc(Cl)c(C(F)(F)F)c3)n2n1` [Compound 87], the Ki at CCR9 [2] was determined as 3.23 µM.

Regarding `CCOc1ccc(-c2cc3c(C#N)ccc(NS(=O)(=O)c4ccc(C(C)(C)C)cc4)n3n2)cn1` [Compound 195], on CCR9 [2], the Ki came to 0.034 µM.

In the case of `COc1ccc(-c2cc3c(Cl)ccc(NS(=O)(=O)c4ccc(C(C)(C)C)cc4)n3n2)cn1` [Compound 197], the Ki on CCR9 [2] stood at 0.189 µM.

On to `CC(C)(C)c1ccc(S(=O)(=O)Nc2ccc(C#N)c3cc(-c4ccncc4)nn23)cc1` [Compound 150], for which the Ki on CCR9 [2] was found to be 0.039 µM.

With `CC(C)(C)c1ccc(S(=O)(=O)Nc2ccc(C#N)c3cc(-c4cnco4)nn23)cc1` [Compound 170, 4-(tert-butyl)-N-(4-cyano-2-(oxazol-5-yl)pyrazolo[1,5-a]pyridin-7-yl)benzenesulfonamide], on CCR9 [2], the Ki stood at 0.027 µM.

`O=S(=O)(Nc1ccnc2cc(C3CC3)nn12)c1ccc(C(F)(F)F)cc1` [Compound 41]: the Ki on CCR9 [2] stood at 1.88 µM.

As to `CC(C)c1cc2c(Cl)ccc(NS(=O)(=O)c3ccc(C(F)(F)F)cc3)n2n1` [Compound 101], the Ki at CCR9 [2] was 0.492 µM.

`CCn1cc(-c2cc3c(Cl)ccc(NS(=O)(=O)c4ccc(C(C)(C)C)cc4)n3n2)cn1` [Compound 185]: the Ki at CCR9 [2] came to 0.116 µM.

For the compound `COc1ccc(NS(=O)(=O)c2ccc(C(C)(C)C)cc2)n2nc(-c3cccnc3)cc12` [Compound 173, 4-(tert-butyl)-N-(4-methoxy-2-(pyridin-3-yl)pyrazolo[1,5-a]pyridin-7-yl)benzenesulfonamide], the Ki on CCR9 [2] amounted to 0.377 µM.

Take `CCc1cc2c(Cl)ccc(NS(=O)(=O)c3ccc(C(F)(F)F)cc3)n2n1` [Compound 106]: at CCR9 [2], the Ki turned out to be 0.177 µM.

Regarding `CC(C)(C)c1ccc(S(=O)(=O)Nc2ccc(Cl)c3cc(-c4cncc(F)c4)nn23)cc1` [Compound 132], at CCR9 [2], the Ki was found to be 0.171 µM.

With `Cc1cc2nccc(NS(=O)(=O)c3ccc(Br)cc3)n2n1` [Compound 28], at CCR9 [2], the Ki came out at 6.19 µM.

With `O=S(=O)(Nc1ccc(Cl)c2cc(-c3cncc(F)c3)nn12)c1ccc(C(F)(F)F)cc1` [Compound 133], the Ki at CCR9 [2] came to 0.182 µM.

With `COc1cncc(-c2cc3c(Cl)ccc(NS(=O)(=O)c4ccc(C(C)(C)C)cc4)n3n2)c1` [Compound 127], the Ki at CCR9 [2] stood at 0.192 µM.

Take `Cn1nccc1-c1cc2c(Cl)ccc(NS(=O)(=O)c3ccc(C(C)(C)C)cc3)n2n1` [Compound 143]: the Ki on CCR9 [2] stood at 0.105 µM.

Regarding `Cc1c(-c2cc3c(Cl)ccc(NS(=O)(=O)c4ccc(C(C)(C)C)cc4)n3n2)cnn1C` [Compound 187], the Ki on CCR9 [2] came to 0.318 µM.

As to `O=S(=O)(Nc1ccnc2cc(C3CC3)nn12)c1ccc(OC(F)(F)F)cc1` [Compound 42], the Ki on CCR9 [2] worked out at 1.59 µM.

The term Ki denotes a measure of affinity in units of concentration, obtained from inhibition or displacement.

The values are drawn from US20170002011A1, “BENZENE SULFONAMIDES AS CCR9 INHIBITORS” (NORGINE B.V., priority 2013, published 2017).
